The record followed here is ChEMBL document CHEMBL5104196, “Discovery of Novel, Potent, and Selective Small-Molecule Menin-Mixed Lineage Leukemia Interaction Inhibitors through Attempting Introduction of Hydrophilic Groups” (J Med Chem, 2022).

The test system of one series is HL-60. The series is described as follows: Antiproliferative activity against human […] assessed as cell growth inhibition measured for 72 hrs by MTT assay. Format: functional, cell-based. Conditions: HL-60, 72 h.
The test system of series [1] is MV4-11. Kind of series: Antiproliferative activity against human MV4-11 cells harboring MLL-AF4 assessed as cell growth inhibition measured for 72 hrs by MTT assay. Format: functional, cell-based. Conditions: MV4-11, 72 h. (In general: Formazan colour is commonly taken as a measure of viable cells.)
Series [2] deals with Menin/Histone-lysine N-methyltransferase MLL (Homo sapiens, UniProt O00255). The series is described as follows: Inhibition of Menin/fluorescein labeled MLL(4 to 43 residues) (unknown origin) protein protein interaction incubated for 1 hr by fluorescence polarization-based competitive binding assay. (In general: In fluorescence polarisation assays a small probe gives low polarisation when free and higher when bound to something large.)

A short description of series [3]: Solubility of compound in phosphate buffer at pH 7.4 by spectrophotometric analysis. The format is physicochemical.
For series [4], the system named is MV4-11. Kind of series: Induction of cell differentiation in human MV4-11 cells assessed as increase in CD11b expression at 10 uM measured after 7 days by flow cytometric analysis. Conditions: time 7.0 day. The format is functional, cell-based. Background: A flow cytometer gives signals particle by particle.
Series [5] has as its system MV4-11. The series is described as follows: Induction of apoptosis in human MV4-11 cells incubated for 24 hrs by annexinV/PI staining based flow cytometry analysis. To be noted: dose 0.1-10 µM, DDE = dose-dependent effect. Format: functional, cell-based.
Series [6] concerns MV4-11. The series is described as follows: Antiproliferative activity against human MV4-11 cells assessed as reduction in cell viability measured for 3 days followed by replacement with fresh medium of compound and measured after 72 hrs by cell counting assay. The format is functional, cell-based. To be noted: MV4-11, 72 h.
The subject of series [7] is MV4-11. Kind of series: Antiproliferative activity against human MV4-11 cells assessed as reduction in cell viability measured for 3 days by cell counting assay. The format is functional, cell-based. To be noted: MV4-11, 72 h.
The test system of series [8] is MV4-11. The series is described as follows: Reversible differentiation arrest in human MV4-11 cells at 0.1 to 10 uM measured after 7 days by flow cytometric analysis. The format is functional, cell-based. To be noted: dose 0.1-10 µM, time 7.0 day.

The pIC50 is the IC50 on a negative log10 scale, so that one unit is a factor of ten. As a reminder, the solubility is the concentration that dissolves in the medium under given conditions. A high value points to a readily soluble substance.

Structures are written as SMILES. pIC50: −log10 of the molar value. ≈ marks a conversion by molar mass, not a printed value. Calls of active or inactive are those of the source. The calls are words filed in the database; no cut-off is given here.

Menin/Histone-lysine N-methyltransferase MLL, sequence (O00255 whole entry, the tested form may be a part): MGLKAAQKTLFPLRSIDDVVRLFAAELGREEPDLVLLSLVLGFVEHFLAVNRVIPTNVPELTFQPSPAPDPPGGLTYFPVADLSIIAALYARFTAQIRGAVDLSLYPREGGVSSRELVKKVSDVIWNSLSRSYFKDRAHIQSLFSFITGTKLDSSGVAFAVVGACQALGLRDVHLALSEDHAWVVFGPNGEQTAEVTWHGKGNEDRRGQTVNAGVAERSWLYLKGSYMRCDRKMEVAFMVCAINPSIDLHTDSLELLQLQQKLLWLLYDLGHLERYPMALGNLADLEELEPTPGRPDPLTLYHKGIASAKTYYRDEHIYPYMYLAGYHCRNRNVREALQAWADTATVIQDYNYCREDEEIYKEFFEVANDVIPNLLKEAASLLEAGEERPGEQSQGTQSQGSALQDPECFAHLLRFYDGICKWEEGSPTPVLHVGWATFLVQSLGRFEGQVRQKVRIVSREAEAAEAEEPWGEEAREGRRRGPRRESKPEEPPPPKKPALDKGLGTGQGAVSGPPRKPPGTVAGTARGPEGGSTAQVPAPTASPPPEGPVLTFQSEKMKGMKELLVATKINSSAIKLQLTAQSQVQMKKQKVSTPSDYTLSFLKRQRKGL
Menin/Histone-lysine N-methyltransferase MLL, sequence (Q03164 1-2718 partner limits assumed): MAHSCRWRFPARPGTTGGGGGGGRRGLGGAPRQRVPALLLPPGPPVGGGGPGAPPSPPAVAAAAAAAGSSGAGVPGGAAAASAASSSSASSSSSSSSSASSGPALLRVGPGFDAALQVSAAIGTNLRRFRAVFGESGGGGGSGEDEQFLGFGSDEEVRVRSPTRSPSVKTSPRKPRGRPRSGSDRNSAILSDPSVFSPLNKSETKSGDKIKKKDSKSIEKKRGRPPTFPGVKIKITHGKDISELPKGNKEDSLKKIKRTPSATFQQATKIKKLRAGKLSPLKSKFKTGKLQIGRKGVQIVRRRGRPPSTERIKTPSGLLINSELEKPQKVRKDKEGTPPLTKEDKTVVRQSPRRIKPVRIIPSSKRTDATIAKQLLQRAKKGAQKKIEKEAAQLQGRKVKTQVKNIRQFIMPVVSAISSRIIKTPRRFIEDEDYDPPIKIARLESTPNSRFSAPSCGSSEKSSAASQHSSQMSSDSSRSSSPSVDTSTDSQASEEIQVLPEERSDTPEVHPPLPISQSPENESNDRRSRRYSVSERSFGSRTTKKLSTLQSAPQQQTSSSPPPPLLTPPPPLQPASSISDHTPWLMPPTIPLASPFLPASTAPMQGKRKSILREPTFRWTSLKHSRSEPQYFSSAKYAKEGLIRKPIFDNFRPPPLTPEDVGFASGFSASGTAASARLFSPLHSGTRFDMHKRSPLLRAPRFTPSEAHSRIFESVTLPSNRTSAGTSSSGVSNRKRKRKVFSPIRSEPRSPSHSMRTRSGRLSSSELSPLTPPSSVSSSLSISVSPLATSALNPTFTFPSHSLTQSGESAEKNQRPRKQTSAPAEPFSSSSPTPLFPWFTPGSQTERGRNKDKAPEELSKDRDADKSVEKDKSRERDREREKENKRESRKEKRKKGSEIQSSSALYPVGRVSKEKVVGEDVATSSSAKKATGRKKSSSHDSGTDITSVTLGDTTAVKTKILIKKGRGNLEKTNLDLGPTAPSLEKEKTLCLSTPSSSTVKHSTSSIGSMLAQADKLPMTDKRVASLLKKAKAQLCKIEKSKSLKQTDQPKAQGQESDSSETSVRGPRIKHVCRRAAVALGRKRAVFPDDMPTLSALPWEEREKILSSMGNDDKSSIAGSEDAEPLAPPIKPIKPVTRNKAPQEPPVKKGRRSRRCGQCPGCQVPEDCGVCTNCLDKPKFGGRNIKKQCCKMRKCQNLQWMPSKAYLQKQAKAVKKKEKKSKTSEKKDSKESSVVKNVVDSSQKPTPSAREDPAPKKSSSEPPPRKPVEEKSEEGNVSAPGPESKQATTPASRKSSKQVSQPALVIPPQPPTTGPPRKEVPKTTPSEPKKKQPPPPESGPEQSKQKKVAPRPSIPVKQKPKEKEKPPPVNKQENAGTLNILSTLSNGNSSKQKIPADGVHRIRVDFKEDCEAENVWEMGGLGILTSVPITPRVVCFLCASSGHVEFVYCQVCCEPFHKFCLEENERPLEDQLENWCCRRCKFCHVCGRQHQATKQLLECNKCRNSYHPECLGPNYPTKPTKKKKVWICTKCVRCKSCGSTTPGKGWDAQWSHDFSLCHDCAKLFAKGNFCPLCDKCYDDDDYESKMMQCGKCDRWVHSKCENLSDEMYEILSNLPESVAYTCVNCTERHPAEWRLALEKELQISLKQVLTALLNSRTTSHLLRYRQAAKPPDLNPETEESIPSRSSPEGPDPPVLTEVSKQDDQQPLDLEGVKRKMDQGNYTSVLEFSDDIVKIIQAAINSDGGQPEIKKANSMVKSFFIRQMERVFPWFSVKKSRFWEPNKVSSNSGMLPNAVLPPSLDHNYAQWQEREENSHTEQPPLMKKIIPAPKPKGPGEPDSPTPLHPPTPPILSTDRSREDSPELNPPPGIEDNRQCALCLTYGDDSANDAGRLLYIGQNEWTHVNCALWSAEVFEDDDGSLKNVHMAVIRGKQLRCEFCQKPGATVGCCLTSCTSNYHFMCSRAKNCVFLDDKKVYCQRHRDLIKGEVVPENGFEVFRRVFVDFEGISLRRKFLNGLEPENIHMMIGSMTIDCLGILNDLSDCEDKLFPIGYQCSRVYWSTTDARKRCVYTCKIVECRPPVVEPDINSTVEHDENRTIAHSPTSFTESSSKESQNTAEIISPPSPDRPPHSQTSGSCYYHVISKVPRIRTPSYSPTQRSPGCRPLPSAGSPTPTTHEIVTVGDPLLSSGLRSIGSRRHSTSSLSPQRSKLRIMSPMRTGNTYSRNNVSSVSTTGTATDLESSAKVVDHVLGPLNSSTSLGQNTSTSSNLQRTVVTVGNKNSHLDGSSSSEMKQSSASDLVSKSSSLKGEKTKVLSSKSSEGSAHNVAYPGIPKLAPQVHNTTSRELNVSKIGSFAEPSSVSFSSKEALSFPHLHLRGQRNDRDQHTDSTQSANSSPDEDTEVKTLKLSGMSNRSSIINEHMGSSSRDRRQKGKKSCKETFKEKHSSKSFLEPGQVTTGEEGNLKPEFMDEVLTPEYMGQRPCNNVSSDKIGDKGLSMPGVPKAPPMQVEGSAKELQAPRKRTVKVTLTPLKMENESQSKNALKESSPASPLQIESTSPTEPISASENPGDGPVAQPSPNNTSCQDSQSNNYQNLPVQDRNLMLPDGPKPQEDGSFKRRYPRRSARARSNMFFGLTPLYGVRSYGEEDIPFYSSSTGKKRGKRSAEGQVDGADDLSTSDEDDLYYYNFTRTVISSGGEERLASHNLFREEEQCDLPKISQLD
Menin/Histone-lysine N-methyltransferase MLL, sequence (Q03164 2719-3969 partner limits assumed): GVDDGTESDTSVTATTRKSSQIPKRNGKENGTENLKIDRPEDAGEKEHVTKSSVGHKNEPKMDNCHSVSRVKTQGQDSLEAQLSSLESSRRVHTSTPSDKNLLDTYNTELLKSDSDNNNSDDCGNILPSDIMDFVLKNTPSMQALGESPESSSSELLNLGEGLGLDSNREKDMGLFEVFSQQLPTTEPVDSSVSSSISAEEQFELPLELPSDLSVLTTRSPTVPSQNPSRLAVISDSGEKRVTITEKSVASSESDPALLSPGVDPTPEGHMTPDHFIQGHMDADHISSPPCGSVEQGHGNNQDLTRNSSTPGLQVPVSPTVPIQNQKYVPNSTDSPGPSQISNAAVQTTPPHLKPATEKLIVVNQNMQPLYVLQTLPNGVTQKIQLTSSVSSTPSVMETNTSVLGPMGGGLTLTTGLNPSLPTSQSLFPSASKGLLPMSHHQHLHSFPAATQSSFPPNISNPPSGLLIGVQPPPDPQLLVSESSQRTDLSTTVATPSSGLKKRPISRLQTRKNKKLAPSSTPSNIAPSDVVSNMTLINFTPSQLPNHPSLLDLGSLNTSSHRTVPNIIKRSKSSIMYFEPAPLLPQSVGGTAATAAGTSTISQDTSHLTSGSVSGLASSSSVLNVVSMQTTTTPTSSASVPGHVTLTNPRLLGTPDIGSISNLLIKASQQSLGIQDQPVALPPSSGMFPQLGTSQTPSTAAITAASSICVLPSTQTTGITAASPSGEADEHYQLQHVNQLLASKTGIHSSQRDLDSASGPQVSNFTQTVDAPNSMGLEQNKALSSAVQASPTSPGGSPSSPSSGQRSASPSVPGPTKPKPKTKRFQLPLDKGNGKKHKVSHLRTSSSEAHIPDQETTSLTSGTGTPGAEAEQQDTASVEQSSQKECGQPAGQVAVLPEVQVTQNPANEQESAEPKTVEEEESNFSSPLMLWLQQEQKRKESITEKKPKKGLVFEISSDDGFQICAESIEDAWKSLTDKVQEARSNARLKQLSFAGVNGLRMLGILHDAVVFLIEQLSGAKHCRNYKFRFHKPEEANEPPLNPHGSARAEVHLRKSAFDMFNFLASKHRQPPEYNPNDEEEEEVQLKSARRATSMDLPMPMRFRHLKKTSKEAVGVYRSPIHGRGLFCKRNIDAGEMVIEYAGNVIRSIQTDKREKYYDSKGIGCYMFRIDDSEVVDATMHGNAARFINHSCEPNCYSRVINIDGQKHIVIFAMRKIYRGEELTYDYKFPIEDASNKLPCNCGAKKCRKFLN

For `CC(C)Nc1cc2c(NC3CCN(CC4CN(c5ccc(C#N)cc5)C4)CC3)ncnc2cn1`, the values for the negative logarithm of the IC50 (pIC50) (with HL-60; in the series on MV4-11 [1]; in [2]) were less than 5.00, less than 5.00 and 6.28, respectively.
With `CN(C)C1CCN(c2ccc3ncnc(NC4CCN(CC5CN(c6ccc(C#N)cc6)C5)CC4)c3n2)CC1`, the negative logarithm of the IC50 (pIC50) was 4.99 in the series with HL-60, 5.01 in the series on MV4-11 [1] and 6.89 in series [2].
For `CCN(CC)CCNc1ccc2ncnc(NC3CCN(CC4CN(c5ccc(C#N)cc5)C4)CC3)c2n1` the same measures were 5.02, 5.38 and 6.09.
Taken in the same sequence, the figures for `CN(C)CCNc1ccc2ncnc(NC3CCN(CC4CN(c5ccc(C#N)cc5)C4)CC3)c2n1` were less than 5.00, 5.36 and 6.01.
For `CN1CCN(c2ccc3ncnc(NC4CCN(CC5CN(c6ccc(C#N)cc6)C5)CC4)c3n2)CC1` the same measures were 5.00, 5.25 and 7.15.
For the compound `N#Cc1ccc(N2CC(CN3CCC(Nc4ncnc5cnc(NCC6CC6)cc45)CC3)C2)cc1`, the negative-log IC50 (pIC50) (with HL-60; with MV4-11 [1]; in series [2]) was less than 5.00 in each case.
For `O=S(=O)(c1ccc(N2CC(CN3CCC(Nc4ncnc5ccc(Cl)nc45)CC3)C2)cc1)c1ccccn1`, the pIC50 is less than 5.00 in the series on HL-60, 5.60 in the series with MV4-11 [1] and 7.22 in [2].
For `N#Cc1ccc(N2CC(CN3CCC(Nc4ncnc5cnc(N6CCCC6)cc45)CC3)C2)cc1` the same measures were less than 5.00, 5.19 and less than 5.00.
For `N#Cc1ccc(N2CC(CN3CCC(Nc4ncnc5ccc(NCCN)nc45)CC3)C2)cc1` the same measures were less than 5.00, 5.01 and 6.17.
For `N#Cc1ccc(N2CC(CN3CCC(Nc4ncnc5cnc(OCC(F)(F)F)cc45)CC3)C2)cc1` the same measures were less than 5.00, less than 5.00 and 6.16.
Take `CC(C)(C)OC(=O)N1CC(S(=O)(=O)c2ccc(N3CC(CN4CCC(Nc5ncnc6ccc(Cl)nc56)CC4)C3)cc2)C1`: the pIC50 with HL-60 was less than 5.00; in the series on MV4-11 [1], 5.64; in [2], 6.92. In [3], this compound displayed a solubility of less than 0.6 µg/mL.
As for `N#Cc1ccc(N2CC(CN3CCC(Nc4ncnc5cnc(N6CCOCC6)cc45)CC3)C2)cc1`, the negative-log IC50 (pIC50) (in the series with HL-60; in the series on MV4-11 [1]; in [2]) was less than 5.00 throughout.
For `CN(C)CCOc1ccc2ncnc(NC3CCN(CC4CN(c5ccc(C#N)cc5)C4)CC3)c2n1`, the negative-log IC50 (pIC50) was less than 5.00 with HL-60, 5.82 with MV4-11 [1] and 7.22 in series [2]. Also, in series [3], the concentration in solution (solubility) was 314 µg/mL (≈ 645 µM).
In the case of `CC(C)CNc1cc2c(NC3CCN(CC4CN(c5ccc(C#N)cc5)C4)CC3)ncnc2cn1`, the figures for the negative logarithm of the IC50 (pIC50) (in the series on HL-60; in the series on MV4-11 [1]; in series [2]) were less than 5.00, less than 5.00 and 5.71, respectively.
For `CCNCCNc1ccc2ncnc(NC3CCN(CC4CN(c5ccc(C#N)cc5)C4)CC3)c2n1`, the negative-log IC50 (pIC50) (in the series on HL-60; in the series on MV4-11 [1]; in series [2]) was less than 5.00 each time.
On to `N#Cc1ccc(N2CC(CN3CCC(Nc4ncnc5cnc(Cl)cc45)CC3)C2)cc1`, for which the pIC50 (with HL-60; in the series on MV4-11 [1]; in [2]) was less than 5.00 each time.
Turning to `CN(C)C1CCN(c2cc3c(NC4CCN(CC5CN(c6ccc(C#N)cc6)C5)CC4)ncnc3cn2)CC1`, the negative-log IC50 (pIC50) with HL-60 is less than 5.00; in the series on MV4-11 [1], 5.52; in [2], less than 5.00.
As to `N#Cc1ccc(N2CC(CN3CCC(Nc4ncnc5cnc(NC6CC6)cc45)CC3)C2)cc1`, the pIC50 (with HL-60; with MV4-11 [1]; in [2]) was less than 5.00 throughout.
For the compound `CN(C)CCOc1ccc2ncnc(NC3CCN(CC4CN(c5ccc(S(=O)(=O)c6ccncc6)cc5)C4)CC3)c2n1`, the pIC50 in the series with HL-60 is less than 5.00; with MV4-11 [1], 5.82; in series [2] it was 8.00. Also, the concentration in solution in series [3] (solubility) came to 153 µg/mL (≈ 254 µM).
Consider `N#Cc1ccc(N2CC(CN3CCC(Nc4ncnc5ccc(Br)cc45)CC3)C2)cc1`, for which the negative logarithm of the IC50 (pIC50) (in the series with HL-60; with MV4-11 [1]; in [2]) was less than 5.00 in each case.
Regarding `N#Cc1ccc(N2CC(CN3CCC(Nc4ncnc5ccc(CC(F)(F)F)cc45)CC3)C2)cc1`, the pIC50 (in the series on HL-60; with MV4-11 [1]; in series [2]) was less than 5.00 each time.
As for `O=S(=O)(c1ccncc1)c1ccc(N2CC(CN3CCC(Nc4ncnc5cnc(Cl)cc45)CC3)C2)cc1`, the negative logarithm of the IC50 (pIC50) is less than 5.00 with HL-60, 5.05 with MV4-11 [1] and less than 5.00 in [2].
Take `N#Cc1ccc(N2CC(CN3CCC(Nc4ncnc5ccc(NCCO)nc45)CC3)C2)cc1`: the pIC50 (in the series on HL-60; in the series on MV4-11 [1]; in series [2]) was less than 5.00 throughout.
Regarding `CN(C)CCN(C)c1ccc2ncnc(NC3CCN(CC4CN(c5ccc(C#N)cc5)C4)CC3)c2n1`, the values for the negative-log IC50 (pIC50) (in the series on HL-60; in the series with MV4-11 [1]; in [2]) were less than 5.00, 5.49 and 6.59, respectively.
Taken in the same sequence, the figures for `N#Cc1ccc(N2CC(CN3CCC(Nc4ncnc5cnc(N6CCCCC6)cc45)CC3)C2)cc1` were less than 5.00, less than 5.00 and 6.23.
Taken in the same sequence, the figures for `N#Cc1ccc(N2CC(CN3CCC(Nc4ncnc5cnc(NC6CCCC6)cc45)CC3)C2)cc1` were less than 5.00, less than 5.00 and 7.22.
For `CN(C)CCN(C)C1CCN(c2cc3c(NC4CCN(CC5CN(c6ccc(C#N)cc6)C5)CC4)ncnc3cn2)CC1` the same measures were less than 5.00, 5.46 and 6.54.
On to `CCCc1cc2c(N3CCN(C4=NCC(C)(C)S4)CC3)ncnc2s1`, for which the outcome in the series with MV4-11 [4] and in the series on MV4-11 [8] was Active. In addition, the pIC50 in the series with HL-60 was less than 5.00; in the series with MV4-11 [6], 5.12; in the series with MV4-11 [1] it was 5.04; with MV4-11 [7] it was 5.07. The Activity entry with MV4-11 [5] was “Dde”.
Turning to `COC(CNc1ccc2ncnc(NC3CCN(CC4CN(c5ccc(C#N)cc5)C4)CC3)c2n1)OC`, the negative logarithm of the IC50 (pIC50) (with HL-60; with MV4-11 [1]; in series [2]) was less than 5.00 throughout.
For the compound `O=S(=O)(c1ccc(N2CC(CN3CCC(Nc4ncnc5ccc(Cl)nc45)CC3)C2)cc1)C1CC1`, the negative-log IC50 (pIC50) is less than 5.00 in the series with HL-60, 5.18 in the series with MV4-11 [1] and 7.05 in [2]. The compound also gave a solubility in series [3] of 15.9 µg/mL (≈ 31 µM).
Taken in the same sequence, the figures for `CN(C)CCOc1ccc2ncnc(NC3CCN(CC4CN(c5ccc(S(=O)(=O)C6CN(C(=O)OC(C)(C)C)C6)cc5)C4)CC3)c2n1` were less than 5.00, 5.70, 6.72 and 69.5 µg/mL (≈ 102 µM).
For the compound `CN1CCN(c2cc3c(NC4CCN(CC5CN(c6ccc(C#N)cc6)C5)CC4)ncnc3cn2)CC1`, the negative-log IC50 (pIC50) was less than 5.00 in the series with HL-60, 5.17 in the series with MV4-11 [1] and less than 5.00 in series [2].
As for `N#Cc1ccc(N2CC(CN3CCC(Nc4ncnc5ccc(Cl)nc45)CC3)C2)cc1`, the pIC50 (in the series on HL-60; with MV4-11 [1]; in [2]) was less than 5.00 in each case. Also, the solubility in [3] is less than 0.4 µg/mL.
Turning to `CC(C)(C)OC(=O)N1CC(S(=O)(=O)c2ccc(N3CC(CN4CCC(Nc5ncnc6cnc(Cl)cc56)CC4)C3)cc2)C1`, the negative logarithm of the IC50 (pIC50) (in the series on HL-60; with MV4-11 [1]; in [2]) was less than 5.00 throughout.
With `N#Cc1ccc(N2CC(CN3CCC(Nc4ncnc5ccc(OCC(F)(F)F)nc45)CC3)C2)cc1`, the negative-log IC50 (pIC50) was less than 5.00 with HL-60, 5.25 in the series with MV4-11 [1] and less than 5.00 in series [2].
Take `N#Cc1ccc(N2CC(CN3CCC(Nc4ncnc5ccc(N6CCNCC6)nc45)CC3)C2)cc1`: the negative logarithm of the IC50 (pIC50) with HL-60 was less than 5.00; with MV4-11 [1], 5.66; in [2], 6.74.
As to `O=S(=O)(c1ccncc1)c1ccc(N2CC(CN3CCC(Nc4ncnc5ccc(Cl)nc45)CC3)C2)cc1`, the figures for the pIC50 (in the series on HL-60; with MV4-11 [1]; in series [2]) were 5.06, 5.70 and 7.52, respectively. Also, the solubility in [3] is 10 µg/mL (≈ 18.2 µM).
